Experiments:
[1] = in vitro; cited from earlier work
[2] = tested on: human small cell lung cancer cell line SW2; experiment: In vitro cytotoxicity to SW2 cells, 24 h exposure, growth back-extrapolation assay; format: cell-based; settings: 24 h exposure to the drug, read-out: IC50, free drug, SW2 cells
Description: Disulfide-containing and mercapto-containing analogues and derivatives of CC-1065 of the invention can be evaluated for their ability to suppress proliferation of various unwanted cell lines in vitro. For example, cell lines such as the human epidermoid carcinoma line KB, the human breast tumor line SKBR3, and the Burkitt's lymphoma line Namalwa can easily be used for the assessment of cytotoxicity of these compounds. Cells to be evaluated can be exposed to the compounds for 24 hours and the surviving fractions of cells measured in direct assays by known methods. IC50 values can then be calculated from the results of the assays.
Cytotoxicity of the analogues and derivatives of CC-1065 and their conjugates with cell binding agents to non-adherent cell lines such as Namalwa and SW2 can be measured by back-extrapolation of cell proliferation curves as described in Goldmacher et al, 135 J. Immunol. […] Cytotoxicity of these compounds to adherent cell lines such as A-375 and SCaBER can be determined by clonogenic assays as described in Goldmacher et al, 102 J. Cell Biol. 1312-1319 (1986). […]
In vitro cytotoxicity of N901-SS-Drug 7. The in vitro cytotoxicity of a disulfide-linked conjugate of the mono-indolyl CPI derivative 7 with the antibody N901, containing on the average 3.3 drug molecules per antibody molecule, was measured on antigen positive SW2 cells and antigen negative Namalwa cells. […]

[3] = single i.v. dose of 12.5 μg/kg; cited from earlier work
P388 leukemia = settings: cited from earlier work

SMILES | fold more cytotoxic than methotrexate, daunorubicin and vincristine [1] | IC50 [2] | delayed hepatotoxicity leading to death, time of death [3] | treated mice surviving beyond 30 days (P388 leukemia; 0.05 mg/kg i.p. on days 1, 5 and 9) | increase in life span over untreated controls (P388 leukemia; optimal dose 0.05 mg/kg i.p. on days 1, 5 and 9)
COc1c(O)c2c(c3cc(C(=O)N4CCc5c4c(O)c(OC)c4[nH]c(C(=O)N6CC7CC78C6=CC(=O)c6[nH]cc(C)c68)cc54)[nH]c13)CCN2C(N)=O (centres unmarked) [CC-1065] | 100 to 1000 fold | 200 pM | 50 days | – | –
Cc1c[nH]c2c1[C@@]13C[C@@H]1CN(C(=O)c1cc4cc(NC(=O)c5cc6ccccc6o5)ccc4[nH]1)C3=CC2=O [U-73975] | – | – | – | 1 out of 6 | 170%
